In ChEMBL document CHEMBL4813928, “Targeted Isolation of Asperheptatides from a Coral-Derived Fungus Using LC-MS/MS-Based Molecular Networking and Antitubercular Activities of Modified Cinnamate Derivatives” (2021):
Converted amounts (≈) assume the structure as drawn. Square brackets hold non-standard residues; d marks the D form. Peptide text beside a SMILES is read from it.

Test system: Mycobacterium tuberculosis
Test: Antitubercular activity against Mycobacterium tuberculosis H37Ra assessed as bacterial growth inhibition relative to parent compound
Format: functional

SMILES | fold change (FC)
COc1ccc(/C=C/C(=O)OC[C@H]2NC(=O)[C@@H](C(C)C)NC(=O)[C@H](Cc3ccccc3)NC(=O)[C@@H](C(C)C)NC(=O)[C@@H](C)NC(=O)[C@H](CO)NC(=O)[C@@H](Cc3c[nH]c4ccccc34)NC2=O)cc1 | 10
Cc1ccc(/C=C/C(=O)OC[C@@H]2NC(=O)[C@@H](Cc3c[nH]c4ccccc34)NC(=O)[C@@H](COC(=O)/C=C/c3ccc(C)cc3)NC(=O)[C@@H](C(C)C)NC(=O)[C@H](Cc3ccccc3)NC(=O)[C@@H](C(C)C)NC(=O)[C@@H](C)NC2=O)cc1 | 10
Cc1ccccc1/C=C/C(=O)OC[C@@H]1NC(=O)[C@@H](Cc2c[nH]c3ccccc23)NC(=O)[C@@H](COC(=O)/C=C/c2ccccc2C)NC(=O)[C@@H](C(C)C)NC(=O)[C@H](Cc2ccccc2)NC(=O)[C@@H](C(C)C)NC(=O)[C@@H](C)NC1=O | 10
CC(C)[C@H]1NC(=O)[C@H](Cc2ccccc2)NC(=O)[C@@H](C(C)C)NC(=O)[C@@H](C)NC(=O)[C@H](COC(=O)/C=C/c2ccc(F)c(F)c2)NC(=O)[C@@H](Cc2c[nH]c3ccccc23)NC(=O)[C@@H](COC(=O)/C=C/c2ccc(F)c(F)c2)NC1=O | 10

Test system: Mycobacterium tuberculosis
Test: Antitubercular activity against Mycobacterium tuberculosis H37Ra assessed as bacterial growth inhibition
Format: functional

SMILES | MIC [µM]
CC(C)[C@H]1NC(=O)CNC(=O)[C@H](CO)NC(=O)[C@@H](Cc2c[nH]c3ccccc23)NC(=O)[C@@H](C)NC(=O)[C@@H](C(C)C)NC(=O)[C@H](Cc2ccccc2)NC1=O | 100 (≈ 74.7 µg/mL)
COc1ccc(/C=C/C(=O)OC[C@H]2NC(=O)[C@@H](C(C)C)NC(=O)[C@H](Cc3ccccc3)NC(=O)[C@@H](C(C)C)NC(=O)[C@@H](C)NC(=O)[C@H](CO)NC(=O)[C@@H](Cc3c[nH]c4ccccc34)NC2=O)cc1 | 12.5 (≈ 11.7 µg/mL)
Cc1ccc(/C=C/C(=O)OC[C@@H]2NC(=O)[C@@H](Cc3c[nH]c4ccccc34)NC(=O)[C@@H](COC(=O)/C=C/c3ccc(C)cc3)NC(=O)[C@@H](C(C)C)NC(=O)[C@H](Cc3ccccc3)NC(=O)[C@@H](C(C)C)NC(=O)[C@@H](C)NC2=O)cc1 | 12.5 (≈ 13.3 µg/mL)
CC(C)[C@H]1NC(=O)[C@H](Cc2ccccc2)NC(=O)[C@@H](C(C)C)NC(=O)[C@@H](C)NC(=O)[C@H](COC(=O)/C=C/c2ccc(N(C)C)cc2)NC(=O)[C@@H](Cc2c[nH]c3ccccc23)NC(=O)[C@@H](COC(=O)/C=C/c2ccc(N(C)C)cc2)NC1=O | 50 (≈ 56.2 µg/mL)
CC(C)[C@H]1NC(=O)CNC(=O)[C@H](CO)NC(=O)[C@@H](Cc2c[nH]c3ccccc23)NC(=O)[C@@H](CO)NC(=O)[C@@H](C(C)C)NC(=O)[C@H](Cc2ccccc2)NC1=O (cyclo([dV][dS][dW]SG[dV]F)) | 100 (≈ 76.3 µg/mL)
CO[C@H]1/C=C/O[C@@]2(C)Oc3c(C)c(O)c4c(O)c(c(/C=N/N5CCN(C)CC5)c(O)c4c3C2=O)NC(=O)/C(C)=C\C=C\[C@H](C)[C@H](O)[C@@H](C)[C@@H](O)[C@@H](C)[C@H](OC(C)=O)[C@@H]1C [RIFAMPIN] | 0.00625 (≈ 0.00514 µg/mL)
COc1ccc(/C=C/C(=O)OC[C@@H]2NC(=O)[C@@H](Cc3c[nH]c4ccccc34)NC(=O)[C@@H](COC(=O)/C=C/c3ccc(OC)c(OC)c3)NC(=O)[C@@H](C(C)C)NC(=O)[C@H](Cc3ccccc3)NC(=O)[C@@H](C(C)C)NC(=O)[C@@H](C)NC2=O)cc1OC | 100 (≈ 116 µg/mL)
Cc1ccccc1/C=C/C(=O)OC[C@@H]1NC(=O)[C@@H](Cc2c[nH]c3ccccc23)NC(=O)[C@@H](COC(=O)/C=C/c2ccccc2C)NC(=O)[C@@H](C(C)C)NC(=O)[C@H](Cc2ccccc2)NC(=O)[C@@H](C(C)C)NC(=O)[C@@H](C)NC1=O | 12.5 (≈ 13.3 µg/mL)
COc1cc(Br)c(/C=C/C(=O)OC[C@@H]2NC(=O)[C@@H](Cc3c[nH]c4ccccc34)NC(=O)[C@@H](COC(=O)/C=C/c3cc(OC)c(OC)cc3Br)NC(=O)[C@@H](C(C)C)NC(=O)[C@H](Cc3ccccc3)NC(=O)[C@@H](C(C)C)NC(=O)[C@@H](C)NC2=O)cc1OC | 100 (≈ 132 µg/mL)
CC(C)[C@H]1NC(=O)[C@H](Cc2ccccc2)NC(=O)[C@@H](C(C)C)NC(=O)[C@@H](C)NC(=O)[C@H](COC(=O)/C=C/c2cccc(Cl)c2)NC(=O)[C@@H](Cc2c[nH]c3ccccc23)NC(=O)[C@@H](COC(=O)/C=C/c2cccc(Cl)c2)NC1=O | 100 (≈ 111 µg/mL)
CC(C)[C@H]1NC(=O)[C@H](Cc2ccccc2)NC(=O)[C@@H](C(C)C)NC(=O)[C@@H](C)NC(=O)[C@H](COC(=O)/C=C/c2ccc(F)c(F)c2)NC(=O)[C@@H](Cc2c[nH]c3ccccc23)NC(=O)[C@@H](COC(=O)/C=C/c2ccc(F)c(F)c2)NC1=O | 12.5 (≈ 13.9 µg/mL)
CC(C)[C@H]1NC(=O)[C@H](Cc2ccccc2)NC(=O)[C@@H](C(C)C)NC(=O)[C@@H](C)NC(=O)[C@H](CO)NC(=O)[C@@H](Cc2c[nH]c3ccccc23)NC(=O)[C@@H](COC(=O)/C=C/c2ccc(N(C)C)cc2)NC1=O | 50 (≈ 47.5 µg/mL)
CC(C)[C@H]1NC(=O)[C@H](Cc2ccccc2)NC(=O)[C@@H](C(C)C)NC(=O)[C@@H](C)NC(=O)[C@H](COC(=O)/C=C/c2ccccc2Cl)NC(=O)[C@@H](Cc2c[nH]c3ccccc23)NC(=O)[C@@H](COC(=O)/C=C/c2ccccc2Cl)NC1=O | 50 (≈ 55.3 µg/mL)
COc1cc(/C=C/C(=O)OC[C@H]2NC(=O)[C@@H](C(C)C)NC(=O)[C@H](Cc3ccccc3)NC(=O)[C@@H](C(C)C)NC(=O)[C@@H](C)NC(=O)[C@H](CO)NC(=O)[C@@H](Cc3c[nH]c4ccccc34)NC2=O)ccc1OCc1ccccc1 | 50 (≈ 52.2 µg/mL)
CC(C)[C@H]1NC(=O)[C@H](Cc2ccccc2)NC(=O)[C@@H](C(C)C)NC(=O)[C@@H](C)NC(=O)[C@H](COC(=O)/C=C/c2ccccc2)NC(=O)[C@@H](Cc2c[nH]c3ccccc23)NC(=O)[C@@H](COC(=O)/C=C/c2ccccc2)NC1=O | > 100
COc1ccc(/C=C/C(=O)OC[C@@H]2NC(=O)[C@@H](Cc3c[nH]c4ccccc34)NC(=O)[C@@H](COC(=O)/C=C/c3ccc(OC)cc3)NC(=O)[C@@H](C(C)C)NC(=O)[C@H](Cc3ccccc3)NC(=O)[C@@H](C(C)C)NC(=O)[C@@H](C)NC2=O)cc1 | 100 (≈ 110 µg/mL)
COc1cc(Br)c(/C=C/C(=O)OC[C@H]2NC(=O)[C@@H](C(C)C)NC(=O)[C@H](Cc3ccccc3)NC(=O)[C@@H](C(C)C)NC(=O)[C@@H](C)NC(=O)[C@H](CO)NC(=O)[C@@H](Cc3c[nH]c4ccccc34)NC2=O)cc1OC | 50 (≈ 52.3 µg/mL)
NNC(=O)c1ccncc1 [ISONIAZID] | 0.0125 (≈ 0.00171 µg/mL)
CC(C)[C@H]1NC(=O)[C@H](Cc2ccccc2)NC(=O)[C@@H](C(C)C)NC(=O)[C@@H](C)NC(=O)[C@H](C)NC(=O)[C@@H](Cc2c[nH]c3ccccc23)NC(=O)[C@@H](C)NC1=O (cyclo([dV][dA][dW]A[dA][dV]F)) | 100 (≈ 74.5 µg/mL)
CC(C)[C@H]1NC(=O)[C@H](Cc2ccccc2)NC(=O)[C@@H](C(C)C)NC(=O)[C@@H](C)NC(=O)[C@H](COC(=O)/C=C/c2ccc(C(F)(F)F)cc2)NC(=O)[C@@H](Cc2c[nH]c3ccccc23)NC(=O)[C@@H](COC(=O)/C=C/c2ccc(C(F)(F)F)cc2)NC1=O | 100 (≈ 117 µg/mL)
COc1cc(/C=C/C(=O)OC[C@@H]2NC(=O)[C@@H](Cc3c[nH]c4ccccc34)NC(=O)[C@@H](COC(=O)/C=C/c3ccc(OCc4ccccc4)c(OC)c3)NC(=O)[C@@H](C(C)C)NC(=O)[C@H](Cc3ccccc3)NC(=O)[C@@H](C(C)C)NC(=O)[C@@H](C)NC2=O)ccc1OCc1ccccc1 | 100 (≈ 131 µg/mL)
CC(C)[C@H]1NC(=O)[C@H](Cc2ccccc2)NC(=O)[C@@H](C(C)C)NC(=O)[C@@H](C)NC(=O)[C@H](CO)NC(=O)[C@@H](Cc2c[nH]c3ccccc23)NC(=O)[C@@H](CO)NC1=O (cyclo([dV][dS][dW]S[dA][dV]F)) | > 100
CC(C)[C@H]1NC(=O)[C@H](Cc2ccccc2)NC(=O)[C@@H](C(C)C)NC(=O)[C@@H](C)NC(=O)[C@H](CO)NC(=O)[C@@H](Cc2c[nH]c3ccccc23)NC(=O)[C@@H](COC(=O)/C=C/c2ccccc2)NC1=O | > 100
CC(C)[C@H]1NC(=O)[C@H](Cc2ccccc2)NC(=O)[C@@H](C(C)C)NC(=O)[C@@H](C)NC(=O)[C@H](COC(=O)/C=C/c2ccc(F)cc2)NC(=O)[C@@H](Cc2c[nH]c3ccccc23)NC(=O)[C@@H](COC(=O)/C=C/c2ccc(F)cc2)NC1=O | 50 (≈ 53.7 µg/mL)
CC(C)[C@H]1NC(=O)[C@H](Cc2ccccc2)NC(=O)[C@@H](C(C)C)NC(=O)[C@@H](C)NC(=O)[C@H](COC(=O)/C=C/c2ccc(Cl)cc2)NC(=O)[C@@H](Cc2c[nH]c3ccccc23)NC(=O)[C@@H](COC(=O)/C=C/c2ccc(Cl)cc2)NC1=O | 50 (≈ 55.3 µg/mL)
CC(C)[C@H]1NC(=O)CNC(=O)[C@H](C)NC(=O)[C@@H](Cc2c[nH]c3ccccc23)NC(=O)[C@@H](CO)NC(=O)[C@@H](C(C)C)NC(=O)[C@H](Cc2ccccc2)NC1=O | 100 (≈ 74.7 µg/mL)
